Laboratory results published in patent US20130252951A1, “7-HYDROXY-PYRAZOLO[1,5-A] PYRIMIDINE COMPOUNDS AND THEIR USE AS CCR2 RECEPTOR ANTAGONISTS” (Proximagen Limited, priority 2010, published 2013).

Assays:
[1] = target: T1, human CCR2 (Homo sapiens, UniProt P41597); assay: CCR2 functional calcium assay (FLIPR calcium flux, hMCP-1 challenge); assay type: cell-based; design: expressed in transfected cells; host or cells: HEK293 EBNA cells
In short: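 FLIPR Fluo-4 calcium flux in HEK293 EBNA cells transfected with human CCR2, with non-transfected cells as control. Compounds (10-point 1:3 curves, typically 30 μM to 0.5 nM) were added in HBSS/20 mM HEPES/0.1% BSA, pH 7.4, followed by MCP-1 challenge. Peak minus basal signal was expressed as % of EC50 MCP-1 response.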

[2] = target: T1, human CCR2; assay: CCR2 binding assay ([125I]-MCP-1 displacement, SPA); design: expressed in transfected cells; host or cells: HEK293 EBNA cells (membrane preparation); conditions: human CCR2-HEK293 EBNA membranes
Procedure: The binding of test compounds to the CCR2 receptor was evaluated using [^125I]-MCP-1.
Briefly, 25 μL assay buffer (25 mM HEPES, pH 7.4, 5 mM MgCl2, 1 mM CaCl2, 0.2% (w/v) protease free BSA, 100 μg/mL bacitracine and 0.1 M NaCl) was placed into total binding wells and 25 μL unlabelled ligand (0.4 μM MCP-1, for determination of non-specific binding) was placed into non-specific binding wells. [^125I]-MCP-1 (25 μL), human CCR2-HEK293 EBNA membrane preparation (25 μL) and SPA beads (25 μL) were added to all the wells. The wells were incubated for 4 h and counted for 1 min/well in a Perkin Elmer Topcount NXT.
The SPA beads (wheat germ agglutinin (WGA) PEI Type A PVT 0.25 mg/well) were prepared by reconstituting lyophilised bead to 100 mg/mL with de-ionised water and further diluting in assay buffer to give 10 mg/mL. The radioligand ([^125I]-MCP-1) was prepared by dilution in assay buffer to give 0.32 μCi/mL, ˜17600 dpm/25 μL (specific activity 2000 Ci/mMol). The final assay concentration was 0.04 nM. The human CCR2-HEK293 EBNA cells membranes were prepared as follows: cells were spun down at 1000×g for 3 min at room temperature, washed in PBS and spun down again. The cells were then homogenised with an Ultra Turrax at setting 6 in 5-10 mL ice cold buffer A (EDTA 10 mM, HEPES 10 mM, pH 7.4) for 10 sec. Following dilution with further ice cold buffer A and spinning at 20000×g for 20 min at 4° C., the mixture was re-homogenised in 5-10 mL ice cold buffer B (EDTA 0.1 mM, HEPES 10 mM, pH 7.4) and spun at 20000×g for 20 min at 4° C. The protein was assayed and re-suspended in buffer C (Buffer B+1 tablet/10 mL of Roche protease inhibitor cocktail) at 3 mg/mL. Before use, the membranes were thawed and diluted with assay buffer to give 80 μg/mL (2 μg/well).
Specific binding was determined as the difference between total binding in the absence of antagonist and binding in the presence of excess antagonist (non-specific binding). Data was expressed as a percentage of specific binding and analysed by a 4-parameter logistic equation using GraphPad Prism 4 software (GraphPad, San Diego, Calif., USA) to yield IC50 values. Ki values were calculated from the IC50 values using the correction for radioligand concentration.

[3] = system: rat model of STZ induced diabetes; assay: rat model of STZ induced diabetes (diabetic nephropathy), kidney histology; assay type: in vivo; conditions: male Wistar rats, STZ 50 mg/kg i.p., 8 mg/kg/day oral, kidney day 43, p<0.01 vs STZ-vehicle
Source text: Diabetic nephropathy is a common manifestation of renal disease and is defined as the progressive development of renal insufficiency in the setting of hyperglycaemia. This sustained hyperglycaemia causes glomerular mesangial expansion through increased synthesis and decreased degradation of extracellular matrix protein, which progressively destroys the glomerular capillaries, eventually leading to proteinuria and renal failure. Animal models for diabetes can be employed for assessing the mechanisms of the disease, screening potential therapies for the treatment of this condition, and evaluation of therapeutic options. […] A single intraperitoneal injection of STZ in rats results in selective damage of the insulin producing beta cells in the pancreas causing insulin deficiency and subsequent hyperglycaemia after 48 hours. Over the time course of this procedure which can last from 3 weeks to many months, animals develop modest elevations in albuminuria and serum creatinine and some of the histological lesions associated with diabetic nephropathy. The aim of this study was to determine the efficacy of a test compound CCR2 antagonist (Example 33) in a rat model of STZ induced diabetes.
Male Wistar rats were given daily oral administration of the vehicle (30% w/v hydroxypropyl-beta-cyclodextrin (HPBC)) in saline to groups 1 and 3, or oral administration of Example 33 (8 mg/kg/day) to group 2, from 3 days prior to administration of streptozotocin. On day 0 streptozotocin was injected (50 mg/kg body wt, i.p. dissolved in 20 mM sodium citrate buffer) to rats in groups 1 and 2 (STZ groups). Group 3 rats (sham) were injected with an equivalent volume of 20 mM sodium citrate buffer. On day 43 all animals were culled, the left kidney was removed and cut in a sagittal section. These tissue samples were fixed by immersion in 10% (wt/vol) formaldehyde in phosphate-buffered saline (PBS) (0.01 mol/L, pH 7.4) at room temperature. […] The measured parameters were 1) monocyte and macrophage infiltration, 2) tubular damage and 3) glomerular damage. […]

[4] = HEK293 EBNA cells transfected with human CCR2, hMCP-1 challenge, read-out: Functional CCR2 fKi

T1 sequence (P41597 whole entry): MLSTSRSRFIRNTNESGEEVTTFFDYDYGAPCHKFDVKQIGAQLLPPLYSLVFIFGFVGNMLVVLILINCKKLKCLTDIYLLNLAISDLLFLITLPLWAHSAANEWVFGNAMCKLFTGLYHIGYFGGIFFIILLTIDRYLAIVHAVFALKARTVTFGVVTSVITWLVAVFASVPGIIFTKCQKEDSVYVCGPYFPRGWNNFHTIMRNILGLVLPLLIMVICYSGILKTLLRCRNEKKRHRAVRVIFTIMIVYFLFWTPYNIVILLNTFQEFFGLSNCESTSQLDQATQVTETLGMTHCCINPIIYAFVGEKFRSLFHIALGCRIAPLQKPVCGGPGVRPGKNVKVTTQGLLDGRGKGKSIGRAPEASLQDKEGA

Row | Molecule | Ki [1, 4] [nM] | Ki [2] [nM] | also measured
1 | Cc1nc2ccnn2c(O)c1Cc1ccc(Cl)cc1 [Example 1, 6-[(4-Chlorophenyl)methyl]-5-methylpyrazolo[1,5-a]pyrimidin-7-ol] | 10 to 100 | 100 to 1000 | 
2 | Oc1c(Oc2ccc(Br)cc2)c(C2CC2)nc2ccnn12 [Example 65, 6-(4-Bromophenoxy)-5-cyclopropyl-pyrazolo[1,5-a]pyrimidin-7-ol] | < 10 | 100 to 1000 | 
3 | CCOC(=O)c1nc2ccnn2c(O)c1Cc1cccc(Cl)c1 [Example 70, Ethyl 6-[(3-chlorophenyl)methyl]-7-hydroxypyrazolo[1,5-a]pyrimidine-5-carboxylate] | < 10 | 100 to 1000 | 
4 | CCOC(=O)c1nc2ccnn2c(O)c1Cc1ccc(Cl)c(Cl)c1 [Example 72, Ethyl 6-[(3,4-dichlorophenyl)methyl]-7-hydroxypyrazolo[1,5-a]pyrimidine-5-carboxylate] | < 10 | 10 to 100 | 
5 | COCCCNC(=O)c1cnn2c(O)c(Cc3ccccc3)c(C)nc12 [Example 112, 6-Benzyl-7-hydroxy-N-(3-methoxypropyl)-5-methylpyrazolo[1,5-a] pyrimidine-3-carboxamide] | 100 to 1000 |  | 
6 | COCCNC(=O)c1cnn2c(O)c(Cc3ccc(C(F)(F)F)cc3)c(C)nc12 [Example 113, 7-Hydroxy-N-(2-methoxyethyl)-5-methyl-6-{[4-(trifluoromethyl)phenyl]methyl}pyrazolo [1,5-a]pyrimidine-3-carboxamide] | 100 to 1000 |  | 
7 | Cc1nc2c(C(=O)N3CCOCC3)cnn2c(O)c1Cc1ccc(C(F)(F)F)cc1 [Example 114] | 100 to 1000 |  | 
8 | COCCNC(=O)c1cnn2c(O)c(Cc3ccc(Cl)c(Cl)c3)c(C)nc12 [Example 115, 6-[(3,4-Dichlorophenyl)methyl]-7-hydroxy-N-(2-methoxyethyl)-5-methylpyrazolo-[1,5-a] pyrimidine-3-carboxamide] | 10 to 100 |  | 
9 | COCCNC(=O)c1cnn2c(O)c(Cc3cccc(Cl)c3)c(C)nc12 [Example 116, 6-[(3-Chlorophenyl)methyl]-7-hydroxy-N-(2-methoxyethyl)-5-methylpyrazolo[1,5-a]-pyrimidine-3-carboxamide] | 100 to 1000 |  | 
10 | CCc1nc2c(C(=O)NCCOC)cnn2c(O)c1Cc1ccc(Cl)cc1 [Example 117, 6-[(4-Chlorophenyl)methyl]-5-ethyl-7-hydroxy-N-(2-methoxyethyl)pyrazolo-[1,5-a]pyrimidine-3-carboxamide] | 10 to 100 |  | 
11 | COCCNC(=O)c1cnn2c(O)c(Cc3ccc(Cl)cc3)c(COC)nc12 [Example 118, 6-[(4-Chlorophenyl)methyl]-7-hydroxy-N-(2-methoxy-ethyl)5-(methoxymethyl)-pyrazolo[1,5-a]pyrimidine-3-carboxamide] | 100 to 1000 |  | 
12 | O=C1Nc2ccccc2C2(CCN(CCc3ccc(C(F)(F)F)cc3)CC2)O1 [RS102895, reference compound] |  |  | inhibition of CCR2 calcium response ([1]; at 2 μM): full inhibition; Ki ([1]; reference antagonist, read-out: fKi): 84 nM
13 | MCP-1: human recombinant MCP-1, positive control (agonist) of the CCR2 functional assay |  |  | EC50 ([1]; agonist positive control): 3 to 5 nM; concentration giving maximal response ([1]; agonist positive control): 30 nM

Now from value to molecule, other results behind:

Row | Ki [1, 4] [nM] | Ki [2] [nM] | Molecule | also measured
14 | < 10 | 100 to 1000 | CCCc1nc2ccnn2c(O)c1Cc1ccc(C(F)(F)F)c(F)c1 [Example 16, 6-{[3-Fluoro-4-(trifluoromethyl)phenyl]-methyl}-5-propylpyrazolo[1,5-a]-pyrimidin-7-ol] | 
15 | < 10 | 10 to 100 | Oc1c(Cc2cccc(Cl)c2)c(C2CC2)nc2ccnn12 [Example 21, 6-[(3-Chlorophenyl)methyl]-5-cyclo-propylpyrazolo[1,5-a]pyrimidin-7-ol] | 
16 | < 10 | 10 to 100 | Oc1c(Cc2cccc(C(F)(F)F)c2)c(C2CC2)nc2ccnn12 [Example 22, 5-Cycloproyl-6-{[3-(trifluoromethyl)-phenyl]methyl}pyrazolo[1,5-a]pyrimidin-7-ol] | 
17 | < 10 | 10 to 100 | Oc1c(Cc2cc(F)cc(C(F)(F)F)c2)c(C2CC2)nc2ccnn12 [Example 33, 5-Cyclopropyl-6-{[3-fluoro-5-(trifluoro-methyl)phenyl]methyl}pyrazolo[1,5-a]-pyrimidin-7-ol] | glomerular damage (semiquantitative score) [3]: statistically significant effect reducing; monocyte and macrophage infiltration (semiquantitative score) [3]: statistically significant effect reducing; tubular damage (semiquantitative score) [3]: statistically significant effect reducing
18 | < 10 | < 10 | CC(C)c1nc2ccnn2c(O)c1Cc1ccc(F)c(Cl)c1 [Example 37, 6-[(3-Chloro-4-fluorophenyl)methyl]-5-(propan-2-yl)pyrazolo[1,5-a]pyrimidin-7-ol] | 
19 | < 10 | 100 to 1000 | CC(C)c1nc2ccnn2c(O)c1Cc1ccc(F)c(C(F)(F)F)c1 [Example 40, 6-{[4-Fluoro-3-(trifluoromethyl)phenyl]-methyl}-5-(propan-2-yl)pyrazolo[1,5-a]-pyrimidin-7-ol] | 
20 | < 10 | 10 to 100 | CCc1nc2ccnn2c(O)c1Oc1ccc(Cl)c(Cl)c1 [Example 64, 6-(3,4-Dichlorophenoxy)-5-ethyl-pyrazolo[1,5-a]pyrimidin-7-ol] | 
